Measured values reported in patent US11312722B2, “Hsp90 inhibitors and uses thereof” (TRUSTEES OF BOSTON UNIVERSITY, priority 2019, dated 2022).
Values after ≈ are worked out from the molar mass of the structure shown. Like-named read-outs stand apart in the source and are kept apart here.

How the values were obtained:
[1] = test system: C. neoformans (Strain H99); assay: Antifungal sensitivity testing (MIC), C. neoformans H99; type: cell-based
Method: Color scale bar: no growth inhibition (green) to complete inhibition (black). Each shaded box represents the mean of technical duplicates. The experiment was repeated as an independent biological replicate to confirm results.
Minimum inhibitory concentration (MIC) value for compounds against C. neoformans (Strain H99) was determined in dose-response format, in technical duplicate. Experiments were conducted in RPMI medium at 37° C. for 48 h. Relative viable cell number was measured by standard dye reduction (resazurin) assay.
Yeast strains and culture conditions. Strains used in this study were C. albicans CaCi2 (clinical isolate 2), [58] SC5314, [59] and C. neoformans H99. […] Active cultures were maintained on solid (2% agar) yeast extract peptone (YPD, 1% yeast extract, 2% bactopeptone, 2% glucose) at 4° C. for no more than one month.
Antifungal sensitivity testing. […] Each compound was tested in duplicate in at least two independent experiments. […] Plates were photographed after 24 h of incubation at 30° C.

C. neoformans Hsp90 NBD [2] = target: T1, C. neoformans Hsp90 NBD (Cryptococcus neoformans, UniProt J9VVA4); assay: biochemical; type: binding; settings: SPR, 25° C., read-out: Biacore KD
Method: SPR assays. For SPR experiments, Hsp90 NBD expression constructs were modified to encode a C-terminal AviTag™ for site-specific on-column biotinylation with a BirA biotin-ligase kit (Avidity LLC; BirA-500). SPR experiments were performed on a Biacore T200 instrument at 25° C. Biotinylated Hsp90 NBD was diluted to 40 μg/mL and immobilized on a streptavidin chip (Sensor Chip SA, GE Healthcare) at a density of 2000-2500 response units (RU) on the biosensor surface. […] Resulting sensorgrams were analyzed with a fit to a 1:1 binding model, using BIA evaluation software.

[3] = target: Hsp90 (C. albicans whole cell lysate) (Candida albicans (strain SC5314 / ATCC MYA-2876) (Yeast), UniProt P46598); assay: biochemical; type: binding; settings: Yes/No call
Method: (§1) All analogs were assessed for Hsp90 binding affinity using a fluorescence polarization (FP)-based equilibrium competition assay in fungal and human whole cell lysates. […] Using lysates, the relative potency and selectivity for fungal Hsp90 was measured versus the entire ensemble of human Hsp90 isoforms in microplate format using small amounts of test materials. […] Thermal shift assays were performed under saturating ligand conditions, i.e. equimolar concentrations (10 μM) of protein and ligand. As a result, they provided qualitative evidence of target binding, but not a quantitative measurement of ligand affinity. For quantitation, a ligand dissociation constant (Ki) for key compounds was also determined using purified NBDs in FP assays and KD measurements were made by surface plasmon resonance (SPR) using a Biacore instrument. Finally, all analogs were assessed for whole cell antifungal activity against the pathogens C. albicans and C. neoformans.
(§2) FP assays. Whole cell lysates were prepared for FP assays as described previously. Total protein concentration of human and yeast lysates was determined by Bradford assay. […] Serial dilutions of test Hsp90 inhibitors were then assayed under these same conditions to monitor loss of fluorescence polarization as an indicator of probe displacement from Hsp90. […] Titrations of test compound in 25 μL of binding buffer (supplemented with 0.1 mg/mL bovine gamma globulin), were mixed with an equal volume of freshly prepared whole-cell lysate spiked with Cy3-GdA (0.1 nM). Plates were incubated at room temperature for 4.5 h to achieve equilibrium binding for the geldanamycin-based probe. […] Non-linear 4-parameter curve fitting of raw displacement data was performed in GraphPad Prism 5.0 to determine EC50 values as a measure of relative Hsp90-binding affinity. Results were normalized to the value determined for GdA in lysate of each cell type.
(§3) Statistical methods. […] In calculating the error of selectivity determinations, the fractional error of measurements in each species was summed to yield a composite error for the derived ratio.

[4] = mouse liver microsomes; for % remaining at 15 min (NADPH-free): NADPH-free control; for % remaining at 15 min / % remaining at 60 min: with NADPH
in vitro = settings: both, CD-1, mouse; for CLint scaled at 1 μM: liver microsomes; for half-life: microsomes
C. neoformans Hsp90 NBD [5] = target: T1, C. neoformans Hsp90 NBD; assay: Protein thermal shift assay, C. neoformans Hsp90 NBD; type: binding; settings: equimolar protein and ligand (10 μM)
Method: […]. Using recombinant proteins, assay-independent nanomolar inhibitory constants (Ki) were defined for these compounds. Binding of the compounds to their relevant NBD by thermal shift denaturation assays was also confirmed. Thermal shift assays were performed under saturating ligand conditions, i.e. equimolar concentrations (10 μM) of protein and ligand. As a result, they can provide only qualitative evidence of target binding, but not a quantitative measurement of ligand affinity. […] […]. C. neoformans or C. albicans Hsp90 NBD was combined with equimolar concentrations of the indicated bioactive inhibitors (10 μM) or DMSO control, in technical triplicates. The protein was heated from 25 to 98.6° C. at 0.2° C./5 s in the presence of Sypro Orange dye. All compounds induce an increase in melting temperature relative to the DMSO control, reported as ΔTm.
Protein thermal shift assays. Thermal melting curves were determined using a Protein Thermal Shift Kit (ThermoFisher #4462263), employing a CFX384 Real-Time PCR System (Bio-Rad, C1000 Touch Thermal Cycler). Reactions were performed in a final volume of 10 μL, and contained purified C. albicans or C. neoformans Hsp90 NBD diluted to 250 μg/mL in Buffer HBS-P (GE Healthcare Life Sciences, 0.01 M HEPES pH 7.4, 0.15 M NaCl, 0.005% v/v Surfactant P20) with 10 μM synthetic analog or DMSO control, and 1× Sypro Orange dye solution. Samples were prepared in triplicate in 384-well white plates (Bio-Rad; HSP3805). The instrument was set to melt curve, step 1 (25° C., 2 min) and step 2 (ramp to 98.6° C., increasing 0.2° C. per 5 s cycle). The inflection point of each curve is defined as the protein melting temperature (Tm). Temperature shift, ΔTm, was recorded as the difference between the Tm of the fungal Hsp90 NBD with compound minus Tm of the protein without compound.

[6] = target: Hsp90 (C. neoformans whole cell lysate) (Cryptococcus neoformans, UniProt J9VVA4); type: binding; settings: Yes/No call
Method: as §1, §2, §3

[7] = Cryptococcus neoformans, read-out: C. neo MIC80
[8] = Cryptococcus neoformans, read-out: C. neo MIC90
[9] = Cryptococcus neoformans; read-out: C. neo MIC80
[10] = Cryptococcus neoformans; read-out: C. neo MIC90

T1 sequence (J9VVA4 1-699): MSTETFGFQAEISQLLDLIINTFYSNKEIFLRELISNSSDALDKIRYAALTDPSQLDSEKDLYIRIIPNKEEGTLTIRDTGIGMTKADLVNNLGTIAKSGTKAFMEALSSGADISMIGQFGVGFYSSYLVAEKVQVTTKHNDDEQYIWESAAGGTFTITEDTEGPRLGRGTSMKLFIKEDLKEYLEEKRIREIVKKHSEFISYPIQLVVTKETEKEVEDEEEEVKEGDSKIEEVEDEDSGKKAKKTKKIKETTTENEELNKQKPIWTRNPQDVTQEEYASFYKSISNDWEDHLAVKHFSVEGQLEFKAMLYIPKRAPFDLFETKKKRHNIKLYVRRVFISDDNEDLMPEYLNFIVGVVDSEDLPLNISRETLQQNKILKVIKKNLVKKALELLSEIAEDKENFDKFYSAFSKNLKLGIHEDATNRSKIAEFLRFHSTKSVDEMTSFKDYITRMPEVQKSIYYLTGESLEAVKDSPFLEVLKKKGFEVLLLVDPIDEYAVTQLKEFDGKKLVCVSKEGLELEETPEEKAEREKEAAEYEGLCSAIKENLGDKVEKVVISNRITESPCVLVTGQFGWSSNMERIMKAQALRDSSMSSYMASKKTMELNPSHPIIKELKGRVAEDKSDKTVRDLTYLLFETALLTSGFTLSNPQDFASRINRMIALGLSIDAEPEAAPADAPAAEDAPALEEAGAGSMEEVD
Chain of Hsp90 (C. neoformans whole cell lysate) (J9VVA4 1-699): as above

Row | C. neoformans NBD ΔTm (C. neoformans Hsp90 NBD [5]) [°C] | Structure (SMILES) | C. alb Active (biochemical) [3] | % remaining at 15 min (NADPH-free) [4] [%] | % remaining at 15 min [4] [%] | % remaining at 60 min [4] [%] | CLint scaled at 1 μM (in vitro) [mL/min/kg] | half-life (in vitro) [min] | MIC80 [1, 9] [µM] | MIC90 [1, 10] [µM] | also measured
1 | – | COc1cccc(-c2cc(Nc3cc(O)cc(O)c3C(=O)N3Cc4cccnc4C3)n(C)n2)c1 [Compound 113, 5-((3-(3-Methoxyphenyl)-1-methyl-1H-pyrazol-5-yl)amino)-4-(5H,6H,7H-pyrrolo[3,4-b]pyridine-6-carbonyl)benzene-1,3-diol] | Yes | 109.2 | 4.9 | 0 | 1590 | 3.4 | – | – | MIC80 [1, 7]: > 25 µM; MIC90 [1, 8]: > 25 µM; Kd (C. neoformans Hsp90 NBD [2]): 67 nM
2 | 14 | COc1ccc(Cn2nc(-c3ccccc3)cc2Nc2cc(O)cc(O)c2C(=O)N2Cc3ccc(F)cc3C2)cc1 [Compound 29, 4-(5-Fluoro-2,3-dihydro-1H-isoindole-2-carbonyl)-5-((1-((4-methoxyphenyl)methyl)-3-phenyl-1H-pyrazol-5-yl)amino)benzene-1,3-diol] | – | – | – | – | – | – | – | – | –
3 | 12 | COc1ccc(Cn2nc(-c3ccccc3)cc2Nc2cc(O)cc(O)c2C(=O)N2Cc3cccc(F)c3C2)cc1 [Compound 27, 4-(4-Fluoro-2,3-dihydro-1H-isoindole-2-carbonyl)-5-((1-((4-methoxyphenyl)methyl)-3-phenyl-1H-pyrazol-5-yl)amino)benzene-1,3-diol] | – | – | – | – | – | – | – | – | –
4 | – | Cn1nc(-c2ccc(C(C)(C)C)cc2)cc1Nc1cc(O)cc(O)c1C(=O)N1Cc2cn[nH]c2C1 [Compound 129, 5-((3-(4-tert-Butylphenyl)-1-methyl-1H-pyrazol-5-yl)amino)-4-(1H,4H,5H,6H-pyrrolo[3,4-c]pyrazole-5-carbonyl)benzene-1,3-diol] | – | 97.9 | 21.1 | 0.5 | 847 | 6.4 | > 25 | > 25 | C. neo Active (cells) ([1]; Yes/No call): No; C. neo Active (biochemical) [6]: Yes
5 | 11 | CC(C)c1cc(Nc2cc(O)cc(O)c2C(=O)N2Cc3ccccc3C2)n(C)n1 [Compound 100, 4-(2,3-Dihydro-1H-isoindole-2-carbonyl)-5-((1-methyl-3-(propan-2-yl)-1H-pyrazol-5-yl)amino)benzene-1,3-diol] | – | – | – | – | – | – | – | – | –
6 | – | CC(C)c1ccc(Cn2nccc2Nc2cc(O)cc(O)c2C(=O)N2Cc3ccccc3C2)cc1 [Compound 83, (2,4-Dihydroxy-6-((1-(4-isopropylbenzyl)-1H-pyrazol-5-yl)amino)phenyl)(isoindolin-2-yl)methanone] | Yes | 109.1 | 3.4 | 1.8 | 1770 | 3.1 | > 25 | > 25 | –
7 | – | Cc1cccc(-c2cc(Nc3cc(O)cc(O)c3C(=O)N3Cc4cn[nH]c4C3)n(C)n2)c1 [Compound 111, 5-((1-Methyl-3-(3-methylphenyl)-1H-pyrazol-5-yl)amino)-4-(1H,4H,5H,6H-pyrrolo[3,4-c]pyrazole-5-carbonyl)benzene-1,3-diol] | Yes | 115.3 | 20.2 | 1.8 | 582 | 9.4 | > 25 | > 25 | –
8 | – | Cn1nc(-c2ccc(OC(F)(F)F)cc2)cc1Nc1cc(O)cc(O)c1C(=O)N1Cc2cccnc2C1 [Compound 131, 5-((1-Methyl-3-(4-(trifluoromethoxy)phenyl)-1H-pyrazol-5-yl)amino)-4-(5H,6H,7H-pyrrolo[3,4-b]pyridine-6-carbonyl)benzene-1,3-diol] | – | 104.1 | 35.5 | 3.9 | 387 | – | – | – | MIC80 [1, 7]: > 25 µM; MIC90 [1, 8]: > 25 µM; C. neo Active (cells) ([1]; Yes/No call): No; Kd (C. neoformans Hsp90 NBD [2]): 380 nM
9 | 11 | Cn1nc(-c2ccccc2)cc1Nc1cc(O)cc(O)c1C(=O)N1Cc2ccccc2C1 [Compound 91, 4-(2,3-Dihydro-1H-isoindole-2-carbonyl)-5-((1-methyl-3-phenyl-1H-pyrazol-5-yl)amino]benzene-1,3-diol] | Yes | – | – | – | – | – | > 25 | > 25 | –
10 | 12 | Cc1ccccc1-c1cc(Nc2cc(O)cc(O)c2C(=O)N2Cc3ccccc3C2)n(C)n1 [Compound 106, 4-(2,3-Dihydro-1H-isoindole-2-carbonyl)-5-((1-methyl-3-(2-methylphenyl)-1H-pyrazol-5-yl)amino)benzene-1,3-diol] | Yes | – | – | – | – | – | < 25 | 25 (≈ 11 µg/mL) | MIC ([1]; Cryptococcus neoformans; C. neoformans H99, RPMI medium, 37° C., 48 h, resazurin): < 10 µM
11 | 0 | Cn1nc(-c2ccc(C(C)(C)C)cc2)cc1Nc1cc(O)cc(O)c1C(=O)N1Cc2ccccc2C1 [Compound 127, 5-((3-(4-tert-Butylphenyl)-1-methyl-1H-pyrazol-5-yl)amino)-4-(2,3-dihydro-1H-isoindole-2-carbonyl)benzene-1,3-diol] | – | – | – | – | – | – | – | – | –
12 | 14 | COc1ccc(Cn2nc(C(C)(C)C)cc2Nc2cc(O)cc(O)c2C(=O)N2Cc3ccccc3C2)cc1 [Compound 49, (2-((3-(tert-Butyl)-1-(4-methoxybenzyl)-1H-pyrazol-5-yl)amino)-4,6-dihydroxyphenyl)(isoindolin-2-yl)methanone] | – | – | – | – | – | – | – | – | –
13 | – | Cn1nc(-c2ccc(OC(F)(F)F)cc2)cc1Nc1cc(O)cc(O)c1C(=O)N1Cc2cn[nH]c2C1 [Compound 132, 5-((1-Methyl-3-(4-(trifluoromethoxy)phenyl)-1H-pyrazol-5-yl)amino)-4-(1H,4H,5H,6H-pyrrolo[3,4-c]pyrazole-5-carbonyl)benzene-1,3-diol] | – | 71.7 | 63.0 | 20.6 | 176 | – | – | – | MIC80 [1, 7]: > 25 µM; MIC90 [1, 8]: > 25 µM; C. neo Active (cells) ([1]; Yes/No call): No; Kd (C. neoformans Hsp90 NBD [2]): 214 nM
